# Measurements reported in patent US7718808B2, “Thiazole derivatives” (Kyowa Hakko Kirin Co., Ltd., priority 2003, dated 2010).
row,Compound,melting point
1,"O=C(Nc1nc(-c2ccco2)c(C(=O)c2ccccn2)s1)c1cc(Cl)nc(Cl)c1 [Compound 216, 2,6-Dichloro-N-[4-(2-furyl)-5-(pyridin-2-ylcarbonyl)thiazol-2-yl]pyridine-4-carboxamide]",254 to 258 °C
2,"O=C(COc1ccccc1)Nc1nc(-c2ccco2)c(C(=O)C2CCOCC2)s1 [Compound 529, N-[4-(2-Furyl)-5-(tetrahydropyran-4-ylcarbonyl)thiazol-2-yl]-2-phenoxyacetamide]",148 to 150 °C
3,"Nc1nc(-c2ccco2)c(C(=O)C2CCC2)s1 [Compound 423, 2-Amino-4-(2-furyl)thiazol-5-yl cyclobutyl ketone]",125 to 160 °C (dec.)
4,COC1CCN(CC(=O)Nc2nc(-c3ccco3)c(C(=O)c3ccccn3)s2)CC1.Cl,220 to 232 °C (dec.)
5,"COc1ccc(C(=O)Nc2nc(-c3ccco3)c(C(=O)C3CCOCC3)s2)cc1 [Compound 463, N-[4-(2-Furyl)-5-(tetrahydropyran-4-ylcarbonyl)thiazol-2-yl]-4-methoxybenzamide]",184 to 188 °C
6,"O=C(Nc1nc(-c2ccco2)c(C(=O)c2ccncc2)s1)c1ccncc1 [Compound 329, N-[4-(2-Furyl)-5-(pyridin-4-ylcarbonyl)thiazol-2-yl]pyridine-4-carboxamide]",276 to 285 °C
7,"O=C(CN1CCC2(CC1)OCCO2)Nc1nc(-c2ccco2)c(C(=O)c2ccccn2)s1 [Compound 269, 2-(1,4-Dioxa-8-azaspiro[4.5]decan-8-yl)-N-[4-(2-furyl)-5-(pyridin-2-ylcarbonyl)thiazol-2-yl]acetamide]",188 to 204 °C
8,"CN(C)CCN(C)Cc1cc(C(=O)Nc2nc(-c3ccco3)c(-c3ccncc3)s2)ccn1 [Compound 109, 2-{N-[2-(Dimethylamino)ethyl]-N-methylaminomethyl}-N-[4-(2-furyl)-5-(4-pyridyl)thiazol-2-yl]pyridine-4-carboxamide]",203 to 205 °C
9,"O=C(Nc1nc(-c2ccco2)c(C(=O)C2CCC2)s1)c1ccncc1 [Compound 424, N-[5-(Cyclobutylcarbonyl)-4-(2-furyl)thiazol-2-yl]pyridine-4-carboxamide]",227 to 235 °C (dec.)
10,"O=C(Nc1nc(-c2ccco2)c(C(=O)C2CCOCC2)s1)c1ccnc(Cl)c1 [Compound 499, 2-Chloro-N-(4-(2-furyl)-5-(tetrahydropyran-4-ylcarbonyl)thiazol-2-yl]pyridine-4-carboxamide]",185 to 186 °C
11,"COC[C@H]1CCCN1CC(=O)Nc1nc(-c2ccco2)c(C(=O)C2CCOCC2)s1 [Compound 537, N-[4-(2-Furyl)-5-(tetrahydropyran-4-ylcarbonyl)thiazol-2-yl]-2-[(2R)-2-(methoxymethyl)pyrrolidin-1-yl]acetamide]",103 to 104 °C
12,"O=C(Nc1nc(-c2ccco2)c(C(=O)c2ccccn2)s1)c1ccnc(N2CCOCC2)c1 [Compound 219, N-[4-(2-Furyl)-5-(pyridin-2-ylcarbonyl)thiazol-2-yl]-2-morpholinopyridine-4-carboxamide]",216 to 217 °C
13,"O=C(Nc1nc(-c2ccco2)c(C(=O)c2ccccn2)s1)c1cnc(C2CC2)nc1 [Compound 229, 2-Cyclopropyl-N-[4-(2-furyl)-5-(pyridin-2-ylcarbonyl)thiazol-2-yl]pyrimidine-5-carboxamide]",150 to 154 °C
14,"O=C(CN1CCC(N2CCCCC2)CC1)Nc1nc(-c2ccco2)c(C(=O)C2CCOCC2)s1 [Compound 552, N-[4-(2-Furyl)-5-(tetrahydropyran-4-ylcarbonyl)thiazol-2-yl]-2-(4-piperidinopiperidino)acetamide]",177 to 179 °C
15,"CCn1cc(-c2sc(NC(=O)c3ccncc3)nc2-c2ccco2)ccc1=O [Compound 127, N-[5-(1-Ethyl-2-oxo-1,2-dihydropyridin-5-yl)-4-(2-furyl)thiazol-2-yl]pyridine-4-carboxamide]",285 to 289 °C
16,"O=C(CN1CCC(N2CCOCC2)CC1)Nc1nc(-c2ccco2)c(C(=O)c2ccccn2)s1 [Compound 271, N-[4-(2-Furyl)-5-(pyridin-2-ylcarbonyl)thiazol-2-yl]-2-(4-morpholinopiperidino)acetamide]",149 to 150 °C
17,"O=C(Nc1nc(-c2ccco2)c(-c2ccn(Cc3ccccc3)c(=O)c2)s1)c1ccncc1 [Compound 125, N-[5-(1-Benzyl-2-oxo-1,2-dihydropyridin-4-yl)-4-(2-furyl)thiazol-2-yl]pyridine-4-carboxamide]",137 to 140 °C
18,"O=C(Nc1nc(-c2ccco2)c(C(=O)c2ccccn2)s1)OC(CF)CF [Compound 255, 2-Fluoro-1-(fluoromethyl)ethyl N-[4-(2-furyl)-5-(pyridin-2-ylcarbonyl)thiazol-2-yl]carbamate]",158 to 159 °C
19,"Cc1ccoc1C(=O)Nc1nc(-c2ccco2)c(C(=O)c2ccccn2)s1 [Compound 237, N-[4-(2-Furyl)-5-(pyridin-2-ylcarbonyl)thiazol-2-yl]-3-methylfuran-2-carboxamide]",174 to 176 °C

row,Compound,melting point
1,"CC(=O)c1cccc(C(=O)Nc2nc(-c3ccco3)c(C(=O)c3ccccn3)s2)c1 [Compound 207, 3-Acetyl-N-[4-(2-furyl)-5-(pyridin-2-ylcarbonyl)thiazol-2-yl]benzamide]",168 to 169 °C
2,"O=C(Nc1nc(-c2ccco2)c(-c2ccncc2)s1)c1ccn(Cc2ccccc2)c(=O)c1 [Compound 113, 1-Benzyl-N-[4-(2-furyl)-5-(4-pyridyl)thiazol-2-yl]-2-oxo-1,2-dihydropyridine-4-carboxamide]",244 to 248 °C
3,"CC(C)(C)C(=O)Nc1nc(-c2ccco2)c(-c2ccncc2)s1 [Compound 104, N-[4-(2-Furyl)-5-(4-pyridyl)thiazol-2-yl]-2,2-dimethylpropanamide]",240 to 241 °C
4,"O=C(CN1CCCC1)Nc1nc(-c2ccco2)c(C(=O)C2CCOCC2)s1 [Compound 536, N-[4-(2-Furyl)-5-(tetrahydropyran-4-ylcarbonyl)thiazol-2-yl]-2-(1-pyrrolidinyl)acetamide]",115 to 117 °C
5,"CCn1ccc(-c2sc(NC(=O)c3ccncc3)nc2-c2ccco2)cc1=O [Compound 124, N-[5-(1-Ethyl-2-oxo-1,2-dihydropyridin-4-yl)-4-(2-furyl)thiazol-2-yl]pyridine-4-carboxamide]",245 to 248 °C
6,"O=C(Nc1nc(-c2ccco2)c(-c2ccc(=O)n(Cc3ccccc3)c2)s1)c1ccncc1 [Compound 128, N-[5-(1-Benzyl-2-oxo-1,2-dihydropyridin-5-yl)-4-(2-furyl)thiazol-2-yl]pyridine-4-carboxamide]",215 to 218 °C
7,"Cc1ccc(C(=O)c2sc(NC(=O)c3ccncc3)nc2-c2ccco2)nc1 [Compound 294, N-[4-(2-Furyl)-5-(5-methylpyridin-2-ylcarbonyl)thiazol-2-yl]pyridine-4-carboxamide]",255 to 257 °C
8,"O=C(c1ccccn1)c1sc(NC(=O)C2COc3ccccc3O2)nc1-c1ccco1 (centres unmarked) [Compound 211, N-[4-(2-Furyl)-5-(pyridin-2-ylcarbonyl)thiazol-2-yl]-1,4-benzodioxane-2-carboxamide]",103 to 104 °C
9,"COCCN(C)c1cc(C(=O)Nc2nc(-c3ccco3)c(C(=O)c3ccccc3)s2)ccn1 [Compound 145, N-[5-Benzoyl-4-(2-furyl)thiazol-2-yl]-2-[N-(2-methoxyethyl)-N-methylamino]pyridine-4-carboxamide]",145 to 147 °C
10,"COc1cccc(C(=O)Nc2nc(-c3ccco3)c(C(=O)c3ccccn3)s2)c1 [Compound 201, N-[4-(2-Furyl)-5-(pyridin-2-ylcarbonyl)thiazol-2-yl]-3-methoxybenzamide]",165 to 166 °C
11,"O=C(Nc1nc(-c2ccco2)c(C(=O)c2ccccc2)s1)c1ccc(=O)n(Cc2ccncc2)c1 [Compound 152, N-[5-Benzoyl-4-(2-furyl)thiazol-2-yl]-2-oxo-1-(pyridin-4-ylmethyl)-1,2-dihydropyridine-5-carboxamide]",270 to 275 °C
12,"O=C(Nc1nc(-c2ccco2)c(C(=O)C2CCOCC2)s1)c1cccnc1 [Compound 501, N-[4-(2-Furyl)-5-(tetrahydropyran-4-ylcarbonyl)thiazol-2-yl]pyridine-3-carboxamide]",209 to 212 °C
13,"N#Cc1ccc(C(=O)Nc2nc(-c3ccco3)c(C(=O)c3cccnc3)s2)cc1 [Compound 306, 4-Cyano-N-[4-(2-furyl)-5-(pyridin-3-ylcarbonyl)thiazol-2-yl]benzamide]",288 to 290 °C
14,"O=C(Nc1nc(-c2ccco2)c(C(=O)c2cccs2)s1)c1ccncc1 [Compound 347, N-[4-(2-Furyl)-5-(thiophen-2-ylcarbonyl)thiazol-2-yl]pyridine-4-carboxamide]",208 to 210 °C
15,"COc1ccc(C(=O)Nc2nc(-c3ccco3)c(C(=O)C3CCOCC3)s2)c(OC)c1 [Compound 484, N-[4-(2-Furyl)-5-(tetrahydropyran-4-ylcarbonyl)thiazol-2-yl]-2,4-dimethoxybenzamide]",219 to 222 °C
16,"CC1(O)CCN(CC(=O)Nc2nc(-c3ccco3)c(C(=O)C3CCOCC3)s2)CC1 [Compound 546, N-[4-(2-Furyl)-5-(tetrahydropyran-4-ylcarbonyl)thiazol-2-yl]-2-(4-hydroxy-4-methylpiperidino)acetamide]",151 to 153 °C
17,"Cc1cnc(C(=O)Nc2nc(-c3ccco3)c(C(=O)C3CCOCC3)s2)cn1 [Compound 510, N-[4-(2-Furyl)-5-(tetrahydropyran-4-ylcarbonyl)thiazol-2-yl]-5-methylpyrazine-2-carboxamide]",130 to 131 °C
18,"O=C(Nc1nc(-c2ccco2)c(C(=O)C2CCOCC2)s1)c1cnccn1 [Compound 509, N-[4-(2-Furyl)-5-(tetrahydropyran-4-ylcarbonyl)thiazol-2-yl]pyrazine-2-carboxamide]",200 to 205 °C
19,"CN1CCC(OC(=O)Nc2nc(-c3ccco3)c(C(=O)c3ccccn3)s2)CC1 [Compound 254, 1-Methylpiperidin-4-yl N-[4-(2-furyl)-5-(pyridin-2-ylcarbonyl)thiazol-2-yl]carbamate]",222 to 225 °C
